Experimental data as given in PMC9968088, “Identification and Characterization of Three New Antimicrobial Peptides from the Marine Mollusk Nerita versicolor (Gmelin, 1791)” (International Journal of Molecular Sciences, 2023).
Ends that are not written are not given here.

Columns and labels:
Conditions in all cases: 24 h
[1] = system: Pseudomonas aeruginosa; type: cell-based
Method: The OD 600 nm of an overnight culture of Pseudomonas aeruginosa was determined and adjusted to 0.1 in Mueller–Hinton broth and, afterwards, diluted 1:4. […] After a 24 h incubation at 37 °C and a 5% CO2 atmosphere, OD 600 nm was determined using a Tecan microplate reader M infinite 200. All tests were performed in triplicate.

[2] = system: C. albicans; type: cell-based, Candida albicans
Method: (§1) The antifungal activity was determined according to the “Clinical and Laboratory Standards Institute” guidelines M27-A3 broth microdilution assay with modifications (turbidimetric detection) [29, 31]. Based on the cell density measurements, the minimal inhibitory concentration (MIC) was derived from a Lambert–Pearson plot [32].

[3] = system: C. parapsilosis; type: cell-based, Candida parapsilosis
Method: as §1

[4] = system: C. auris; type: cell-based, Candida auris
Method: as §1

[5] = system: C. albicans biofilm; type: cell-based, Candida albicans
Method: (§2) Biofilms were basically formed and analyzed as described previously [31, 32, 33]. In brief, 2.5 × 10^3 yeast cells were seeded in 200 µL RPMI-1640 medium supplemented with L-glutamine in flat-bottomed, 96-well polystyrene microtiter plates (Sarstedt AG & Co. KG, Nümbrecht, Germany) and incubated at 37 °C without agitation for 24 h. The effect of the peptides on the biofilm formation was tested at different concentrations. […] Planktonic cells were removed with the supernatant, and the mature biofilms were washed twice with 200 µL water. Subsequently, the biofilms were stained with 200 µL of a 0.1% (w/v) crystal violet solution for 15 min. The supernatant was removed, and the biofilms were washed twice with 200 µL water to eliminate excess crystal violet. The stained biofilms were air dried for 24 h at 25 °C and finally destained using 200 µL of 30% acetic acid (15 min, 25 °C). The supernatant was transferred to a fresh 96-well plate, and the absorbance at 560 nm was measured using a Tecan infinite M200 microplate reader to quantify the biofilm biomass. The curve was fitted with a nonlinear regression with the dose-response nonlinear Hill equation.

[6] = system: C. parapsilosis biofilm; type: cell-based, Candida parapsilosis
Method: as §2

[7] = system: C. auris biofilm; type: cell-based, Candida auris
Method: as §2

For KKKPTKK [Nv-p3], the MIC [1] was >100 µg/mL, the “Antifungal Activity MIC” value [2] was “˃100 µg/mL” and the “Antifungal Activity MIC” value [3] was “˃100 µg/mL”. For the same substance, the “Antifungal Activity MIC” value [4] was “˃100 µg/mL”, the “Antibiofilm Activity IC50” value [5] was 57.5 µg/mL and the “Antibiofilm Activity IC50” value [6] was 84.4 µg/mL. For the same substance, the “Antibiofilm Activity IC50” value [7] was 57.5 µg/mL.
